According to patent US20140288052A1, “SUBSTITUTED BICYCLIC AZA-HETEROCYCLES AND ANALOGUES AS SIRTUIN MODULATORS” (GlaxoSmithKline, LLC, priority 2011, published 2014):

How the values were obtained:
SIRT1 [1] = molecular target: T1, SIRT1 (Homo sapiens, UniProt Q96EB6); test: TAMRA based mass spectrometry assay of SIRT1 deacetylase activation; format: biochemical; settings: TAMRA peptide substrate; for TAMRA EC1.5 (μM): concentration that results in 150% activation of SIRT1; for TAMRA % Fold Act: percent maximum fold activation relative to control (100%)
T1 sequence (Q96EB6 1-747): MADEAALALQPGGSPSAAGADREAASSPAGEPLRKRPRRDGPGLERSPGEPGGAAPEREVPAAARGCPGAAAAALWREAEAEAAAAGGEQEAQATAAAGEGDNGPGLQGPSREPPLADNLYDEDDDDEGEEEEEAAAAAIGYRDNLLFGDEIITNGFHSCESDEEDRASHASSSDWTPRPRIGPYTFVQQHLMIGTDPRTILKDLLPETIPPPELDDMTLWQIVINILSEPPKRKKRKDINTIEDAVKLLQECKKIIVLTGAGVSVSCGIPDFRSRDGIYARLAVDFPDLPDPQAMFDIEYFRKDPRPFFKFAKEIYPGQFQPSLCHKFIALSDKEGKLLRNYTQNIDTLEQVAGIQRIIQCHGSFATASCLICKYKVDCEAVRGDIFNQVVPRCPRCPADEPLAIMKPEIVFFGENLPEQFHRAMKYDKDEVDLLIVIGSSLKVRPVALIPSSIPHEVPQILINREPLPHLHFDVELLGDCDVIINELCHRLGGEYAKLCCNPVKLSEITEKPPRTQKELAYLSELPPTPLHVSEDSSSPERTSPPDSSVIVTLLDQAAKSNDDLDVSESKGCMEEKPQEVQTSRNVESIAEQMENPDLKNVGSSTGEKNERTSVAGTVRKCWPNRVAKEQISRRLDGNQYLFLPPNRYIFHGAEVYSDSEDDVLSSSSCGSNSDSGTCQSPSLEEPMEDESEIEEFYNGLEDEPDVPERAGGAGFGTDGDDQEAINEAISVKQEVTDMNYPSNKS
How it was run: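 E. coli-expressed N-terminal His-tagged human SIRT1 (10 nM) was incubated 25 min at 25 °C, pH 8 Tris-acetate buffer, with 0.5 μM TAMRA-labelled p53-derived acetyl-peptide, 120 μM NAD+ and varying compound; formic acid stop, mass-spec quantitation of deacetylated product vs DMSO controls. EC1.5 = concentration giving 150% activation.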

SIRT1 [2] = molecular target: T1, SIRT1; test: Trp mass spectrometry assay of SIRT1 deacetylase activation; format: biochemical; settings: Trp peptide substrate; for TRP EC1.5 (μM): concentration that results in 150% activation of SIRT1; for TRP % Fold Act: percent maximum fold activation relative to control (100%)
How it was run: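 His-tagged human SIRT1 (E. coli-expressed, 10 nM) was incubated with 0.5 μM Ac-RHKK(Ac)W-NH2 peptide and 120 μM βNAD+ for 25 min at 25 °C in HEPES pH 7.5, 1500 mM NaCl, with varying compound; formic acid quench. OAADPR or deacetylated peptide was quantified by mass spectrometry against DMSO control. EC1.5 (150% activation) and percent maximum activation were derived.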

Compound	TAMRA EC1.5 (μM) (SIRT1 [1])	TAMRA % Fold Act (SIRT1 [1])	TRP EC1.5 (μM) (SIRT1 [2])	TRP % Fold Act (SIRT1 [2])
O=C(Nc1cccnc1)c1cc(N2CCOCC2)nn2cc(-c3ccccc3F)nc12 [Compound 40]	C (EC1.5>25 μM)	B (Fold Activation<350%)	C (EC1.5>25 μM)	B (Fold Activation<350%)
O=C(Nc1ccnc2cc(-c3ccccc3C(F)(F)F)nn12)c1cccc(N2CCC2)n1 [Compound 64]	A (EC1.5<1 μM)	B (Fold Activation<350%)	C (EC1.5>25 μM)	B (Fold Activation<350%)
Cc1cnc(C(=O)Nc2ccnc3cc(-c4ccccc4C(F)(F)F)nn23)s1 [Compound 58]	C (EC1.5>25 μM)	B (Fold Activation<350%)	C (EC1.5>25 μM)	B (Fold Activation<350%)
O=C(Nc1ccnc2cc(-c3ccccc3C(F)(F)F)nn12)c1cccc(OCC(O)CO)n1 (stereo not shown) [Compound 65]	A (EC1.5<1 μM)	A (Fold activation≧350%)	A (EC1.5<1 μM)	A (Fold activation≧350%)
O=C(Nc1ccncc1)c1cc(N2CCOCC2)nn2cc(-c3cccc(F)c3)nc12 [Compound 29]	C (EC1.5>25 μM)	B (Fold Activation<350%)	C (EC1.5>25 μM)	B (Fold Activation<350%)
Cc1cccc(C(=O)Nc2ccnc3cc(-c4ccccc4C(F)(F)F)nn23)n1 [Compound 109]	A (EC1.5<1 μM)	A (Fold activation≧350%)	C (EC1.5>25 μM)	B (Fold Activation<350%)
O=C(Nc1nccs1)c1ccnn2cc(-c3cccc(Cl)c3)nc12 [Compound 21]	C (EC1.5>25 μM)	B (Fold Activation<350%)	C (EC1.5>25 μM)	B (Fold Activation<350%)
O=C(Nc1cccc(N2CCOCC2)n1)c1ccnc2cc(-c3cccc(C(F)(F)F)c3)nn12 [Compound 90]	C (EC1.5>25 μM)	B (Fold Activation<350%)	C (EC1.5>25 μM)	B (Fold Activation<350%)
O=C(Nc1cccnc1)c1ccnc2cc(-c3cccc(C(F)(F)F)c3)nn12 [Compound 85]	C (EC1.5>25 μM)	B (Fold Activation<350%)	C (EC1.5>25 μM)	B (Fold Activation<350%)
O=C(Nc1ccnc2cc(-c3cccc(C(F)(F)F)c3)nn12)c1ccncn1 [Compound 97]	C (EC1.5>25 μM)	B (Fold Activation<350%)	C (EC1.5>25 μM)	B (Fold Activation<350%)
O=C(Nc1ccnc2cc(-c3ccccc3C(F)(F)F)nn12)c1cnccn1 [Compound 61]	A (EC1.5<1 μM)	A (Fold activation≧350%)	C (EC1.5>25 μM)	B (Fold Activation<350%)
O=C(Nc1ccnc2cc(-c3cccc(C(F)(F)F)c3)nn12)c1ncccn1 [Compound 71]	B (EC1.5 1−25 μM)	B (Fold Activation<350%)	C (EC1.5>25 μM)	B (Fold Activation<350%)
O=C(Nc1ccncc1)c1ccnc2cc(-c3cccc(C(F)(F)F)c3)nn12 [Compound 86]	C (EC1.5>25 μM)	B (Fold Activation<350%)	C (EC1.5>25 μM)	B (Fold Activation<350%)
Cc1cnc(NC(=O)c2ccnc3cc(-c4cccc(C(F)(F)F)c4)nn23)s1 [Compound 88]	B (EC1.5 1−25 μM)	B (Fold Activation<350%)	C (EC1.5>25 μM)	B (Fold Activation<350%)
O=C(Nc1ccnc2cc(-c3cccc(C(F)(F)F)c3)nn12)c1cscn1 [Compound 66]	C (EC1.5>25 μM)	B (Fold Activation<350%)	C (EC1.5>25 μM)	B (Fold Activation<350%)
O=C(Nc1ccnc2cc(-c3cccc(C(F)(F)F)c3)nn12)c1cccc(OCC(O)CO)n1 (stereo not shown) [Compound 74]	B (EC1.5 1−25 μM)	B (Fold Activation<350%)	B (EC1.5 1−25 μM)	B (Fold Activation<350%)
Cc1csc(NC(=O)c2ccnc3cc(-c4ccccc4C(F)(F)F)nn23)n1 [Compound 81]	B (EC1.5 1−25 μM)	B (Fold Activation<350%)	B (EC1.5 1−25 μM)	B (Fold Activation<350%)
O=C(Nc1ccncc1)c1ccnc2cc(-c3ccccc3C(F)(F)F)nn12 [Compound 77]	B (EC1.5 1−25 μM)	A (Fold activation≧350%)	B (EC1.5 1−25 μM)	B (Fold Activation<350%)
O=C(Nc1ccccn1)c1cc(N2CCOCC2)nn2cc(-c3cccc(C(F)(F)F)c3)nc12 [Compound 49]	C (EC1.5>25 μM)	B (Fold Activation<350%)	C (EC1.5>25 μM)	B (Fold Activation<350%)
O=C(Nc1ccccn1)c1cc(N2CCOCC2)nn2cc(-c3cccc(F)c3)nc12 [Compound 27]	C (EC1.5>25 μM)	B (Fold Activation<350%)	C (EC1.5>25 μM)	B (Fold Activation<350%)
O=C(Nc1cnccn1)c1ccnc2cc(-c3ccccc3C(F)(F)F)nn12 [Compound 99]	C (EC1.5>25 μM)	B (Fold Activation<350%)	C (EC1.5>25 μM)	B (Fold Activation<350%)
O=C(Nc1ncccn1)c1ccnc2cc(-c3cccc(C(F)(F)F)c3)nn12 [Compound 101]	C (EC1.5>25 μM)	B (Fold Activation<350%)	B (EC1.5 1−25 μM)	B (Fold Activation<350%)
O=C(Nc1nccs1)c1cc(N2CCOCC2)nn2cc(-c3cccc(Cl)c3)nc12 [Compound 30]	C (EC1.5>25 μM)	B (Fold Activation<350%)	C (EC1.5>25 μM)	B (Fold Activation<350%)
O=C(Nc1ccccn1)c1cc(N2CCOCC2)nn2cc(-c3ccccc3Cl)nc12 [Compound 36]	C (EC1.5>25 μM)	B (Fold Activation<350%)	C (EC1.5>25 μM)	B (Fold Activation<350%)
O=C(Nc1nccs1)c1ccnn2cc(-c3ccccc3F)nc12 [Compound 1]	C (EC1.5>25 μM)	B (Fold Activation<350%)	C (EC1.5>25 μM)	B (Fold Activation<350%)
